BindingDB's records for doi:10.1074/jbc.M110.120576 (Pharmaleads, 2010)

Molecular target: EEF1AKMT4-ECE2 readthrough transcript protein (Homo sapiens, UniProt P0DPD8)
Test: Enzymatic Assay
Excerpt: Inhibitory assay against ECE-2.

EEF1AKMT4-ECE2 readthrough transcript protein, sequence (P0DPD8 whole entry): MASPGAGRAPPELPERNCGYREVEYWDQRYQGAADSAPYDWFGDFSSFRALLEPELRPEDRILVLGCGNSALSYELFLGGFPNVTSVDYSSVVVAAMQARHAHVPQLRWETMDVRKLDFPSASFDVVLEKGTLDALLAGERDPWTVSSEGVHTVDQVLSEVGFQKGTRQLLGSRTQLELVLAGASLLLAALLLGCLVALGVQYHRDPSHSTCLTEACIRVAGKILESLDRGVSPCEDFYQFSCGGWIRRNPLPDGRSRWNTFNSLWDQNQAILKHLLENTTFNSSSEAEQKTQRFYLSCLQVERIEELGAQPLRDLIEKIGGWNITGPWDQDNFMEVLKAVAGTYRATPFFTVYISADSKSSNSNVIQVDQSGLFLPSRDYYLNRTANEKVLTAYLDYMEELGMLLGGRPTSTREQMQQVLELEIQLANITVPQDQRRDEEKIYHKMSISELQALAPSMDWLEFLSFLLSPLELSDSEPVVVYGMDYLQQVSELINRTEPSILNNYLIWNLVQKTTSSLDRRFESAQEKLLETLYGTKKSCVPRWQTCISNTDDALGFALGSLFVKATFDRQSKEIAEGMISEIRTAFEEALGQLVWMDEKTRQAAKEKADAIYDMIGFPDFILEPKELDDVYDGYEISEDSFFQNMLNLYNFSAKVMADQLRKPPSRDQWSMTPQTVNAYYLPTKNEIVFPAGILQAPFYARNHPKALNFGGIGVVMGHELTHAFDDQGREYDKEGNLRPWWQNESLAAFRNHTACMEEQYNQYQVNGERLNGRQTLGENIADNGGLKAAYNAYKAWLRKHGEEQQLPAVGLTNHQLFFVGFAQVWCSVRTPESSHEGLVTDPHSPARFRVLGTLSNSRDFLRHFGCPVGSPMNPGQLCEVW

| SMILES | IC50 [µM] | Ki [µM] |
| --- | --- | --- |
| O=C(O)CNC(=O)[C@@H](CS)Cc1ccccc1 [2-(2-benzyl-3-sulfanylpropanamido)acetic acid] | > 100 | > 100 |
| C[C@H](CS)C(=O)N1CCC[C@H]1C(=O)O [(2S)-1-[(2S)-2-methyl-3-sulfanylpropanoyl]pyrrolidine-2-carboxylic acid] | > 100 | > 100 |
| O=C(N[C@@H](Cc1c[nH]c2ccccc12)C(=O)O)C(CS)C1CCc2cc(Br)ccc21 (stereo partly drawn) [(2S)-2-[2-(5-bromo-2,3-dihydro-1H-inden-1-yl)-3-sulfanylpropanamido]-3-(1H-indol-3-yl)propanoic acid, 1] | 0.0434 | 0.0223 |
| O=C(O)[C@H](Cc1c[nH]c2ccccc12)NC(=O)[C@H](CS)C1CCc2ccccc21 (stereo partly drawn) [(2S)-2-[(2R)-2-(2,3-dihydro-1H-inden-1-yl)-3-sulfanylpropanamido]-3-(1H-indol-3-yl)propanoic acid, 2] | 0.0151 | 0.0077 |
| CC(C)C[C@H](NP(=O)(O)O[C@@H]1O[C@@H](C)[C@H](O)[C@@H](O)[C@H]1O)C(=O)N[C@@H](Cc1c[nH]c2ccccc12)C(=O)O [(S)-2-{(R)-2-[Hydroxy-((2R,3R,4R,5R,6S)-3,4,5-trihydroxy-6-methyl-tetrahydro-pyran-2-yloxy)-phosphorylamino]-4-methyl-pentanoylamino}-3-(1H-indol-3-yl)-propionic acid] | 0.00233 | 0.0012 |
| C[C@H](NC(=O)[C@@H](CC(=O)NO)Cc1ccccc1)C(=O)O [Kelatorphan] | 0.38 | 0.195 |
| O=C(O)CC(=O)N[C@@H](CS)Cc1ccccc1 [Retrothiorphan] | > 10 | > 10 |
